Where a name gives a salt, the structure may show the parent alone.
What was measured:
Male Wistar rats = assay: Determination of the diuresis (urine volume over 6 hours after oral dosing); assay type: in vivo, rat
Procedure: Procedures were approved by the Institutional Animal Care and Use Committee of NitroMed, Inc. Male Wistar rats (180-200 g) were purchased from Charles River Laboratories (Kingston, N.Y. or Raleigh, N.C.) and allowed to acclimate in the facility for a period of at least 72 h. Rats were randomly housed 2-3 per cage in a light-controlled room with a 12 hour light/dark cycle and allowed ad libitum access to food and water.
Prior to the experiment, each rat was placed in a metabolic cage and allowed to acclimate for a period of 24-48 hours with food and water ad libitum. During this acclimation period, rats received mash food instead of pellet food to prevent contamination of the urine samples. All rats were fasted for 18 hours prior to experimentation. In addition, water was removed 90 minutes prior to oral dosing with test compound or vehicle.
The test compounds were prepared immediately prior to dosing in 0.5% Methocel (F4M Premium Hydroxypropyl Methylcellulose, lot # PF12012N12; Dow Chemical Company, USA) and homogenized with a glass/Teflon pestle motorized homogenizer. Gently vortexed test compounds were administered intragastrically (p.o.; 30 mg/kg or 3 mg/kg) at a dose volume of 3 ml per rat using an 18 gauge gavage needle. Urine volume (ml) was monitored and urine was collected for subsequent electrolyte analysis over a 6 hours period. […] Data are expressed as mean ±SEM; n=6 or 7.

[1] = p.o. 30 mg/kg in 0.5% Methocel, male Wistar rats, 6 hours, mean ± SEM, n=6 or 7
[2] = p.o. 3 mg/kg in 0.5% Methocel, male Wistar rats, 6 hours, mean ± SEM, n=6 or 7

melting point | Compound | other results
178 to 181 °C | NS(=O)(=O)c1cc2c(cc1Cl)NC(CCCO[N+](=O)[O-])NS2(=O)=O (centres unmarked) [Example 8, 2H-1,2,4-Benzothiadiazine-7-sulfonamide, 6-chloro-3,4-dihydro-3-[3-(nitrooxy)propyl]-, 1,1-dioxide] | Urine collected in 6 hours (mL) (30 mg/kg) (Male Wistar rats; [1]): 6.2 ± 0.7 mL
170 to 172 °C | NS(=O)(=O)c1cc2c(cc1Cl)NC(CCCCCO[N+](=O)[O-])=NS2(=O)=O [Example 20c, 4H-1,2,4-Benzothiadiazine-7-sulfonamide, 6-chloro-3-[5-(nitrooxy)pentyl]-, 1,1-dioxide] | Urine collected in 6 hours (mL) (30 mg/kg) (Male Wistar rats; [1]): 3.0 ± 0.9 mL
96 to 99 °C | NS(=O)(=O)c1cc2c(cc1Cl)NCN(CCCCO)S2(=O)=O [Example 41, 2H-1,2,4-Benzothiadiazine-7-sulfonamide, 6-chloro-3,4-dihydro-2-(4-hydroxybutyl)-, 1,1-dioxide] | Urine collected in 6 hours (mL) (3 mg/kg) (Male Wistar rats; [2]): 5.5 ± 0.6 mL
158 to 160 °C | NS(=O)(=O)c1cc2c(cc1Cl)NCN(CCCCCCO[N+](=O)[O-])S2(=O)=O [Example 58b, 2H-1,2,4-Benzothiadiazine-7-sulfonamide, 6-chloro-3,4-dihydro-2-[6-(nitrooxy)hexyl]-, 1,1-dioxide] | Urine collected in 6 hours (mL) (3 mg/kg) (Male Wistar rats; [2]): 6.3 ± 0.2 mL
218 °C | NS(=O)(=O)c1cc2c(cc1Cl)NC(CCc1cc(CO)cc(CO)c1)NS2(=O)=O (centres unmarked) [Example 79d, 2H-1,2,4-Benzothiadiazine-7-sulfonamide, 3-[2-[3,5-bis(hydroxymethyl)phenyl]ethyl]-6-chloro-3,4-dihydro-, 1,1-dioxide] | 
97 °C | NS(=O)(=O)c1cc2c(cc1C(F)(F)F)NC(CCCCCO)NS2(=O)=O (centres unmarked) [Example 25b, 2H-1,2,4-Benzothiadiazine-7-sulfonamide, 3,4-dihydro-3-(5-hydroxypentyl)-6-(trifluoromethyl)-, 1,1-dioxide] | 
177 to 179 °C | NS(=O)(=O)c1cc2c(cc1Cl)NCN(CCCCCO)S2(=O)=O [Example 60, 2H-1,2,4-Benzothiadiazine-7-sulfonamide, 6-chloro-3,4-dihydro-2-(5-hydroxypentyl)-, 1,1-dioxide] | 
152 to 156 °C (dec.) | CC(C)(CO[N+](=O)[O-])C(=O)N1CCC2(CC1)Nc1cc(C(F)(F)F)c(S(N)(=O)=O)cc1S(=O)(=O)N2 [Example 19b, Spiro[2H-1,2,4-benzothiadiazine-3(4H), 4′-piperidine]-7-sulfonamide, 1′-[2,2-dimethyl-3-(nitrooxy)-1-oxopropyl]-6-(trifluoromethyl)-, 1,1-dioxide] | Urine collected in 6 hours (mL) (30 mg/kg) (Male Wistar rats; [1]): 2.5 ± 0.4 mL
138 to 141 °C | NS(=O)(=O)c1cc2c(cc1Cl)NCN(CC(=O)NCCCO[N+](=O)[O-])S2(=O)=O [Example 34, 2H-1,2,4-Benzothiadiazine-2-acetamide, 7-(aminosulfonyl)-6-chloro-3,4-dihydro-N-[3-(nitrooxy)propyl]-, 1,1-dioxide] | Urine collected in 6 hours (mL) (3 mg/kg) (Male Wistar rats; [2]): 2.8 ± 0.3 mL
160 to 162 °C (dec.) | NS(=O)(=O)c1cc2c(cc1Cl)NCN(C/C=C/CO[N+](=O)[O-])S2(=O)=O [Example 67b, 2H-1,2,4-Benzothiadiazine-7-sulfonamide, 6-chloro-3,4-dihydro-2-[(2E)-4-(nitrooxy)-2-butenyl]-, 1,1-dioxide] | Urine collected in 6 hours (mL) (3 mg/kg) (Male Wistar rats; [2]): 6.7 ± 0.6 mL
242 to 243 °C (dec.) | Cc1c(C2Nc3cc(Cl)c(S(N)(=O)=O)cc3S(=O)(=O)N2)no[n+]1[O-] (centres unmarked) [Example 9b, 2H-1,2,4-Benzothiadiazine-7-sulfonamide, 6-chloro-3,4-dihydro-3-(4-methyl-5-oxido-1,2,5-oxadiazol-3-yl)-, 1,1-dioxide] | Urine collected in 6 hours (mL) (30 mg/kg) (Male Wistar rats; [1]): 6.7 ± 0.8 mL
177 to 179 °C | NS(=O)(=O)c1cc2c(cc1Cl)N=C(NC(=O)CCCCCO[N+](=O)[O-])NS2(=O)=O (as salt: hydrochloride) [Example 5b, Hexanamide, N-[7-(aminosulfonyl)-6-chloro-1,1-dioxido-2H-1,2,4-benzothiadiazin-3-yl]-6-(nitrooxy)-] | 
183 to 185 °C (dec.) | CN(CC1Nc2cc(Cl)c(S(N)(=O)=O)cc2S(=O)(=O)N1)C(=O)CN(CCO[N+](=O)[O-])CCO[N+](=O)[O-] (centres unmarked) | 
176 to 179 °C | NS(=O)(=O)c1cc2c(cc1Cl)NCN(CCCCCCO)S2(=O)=O [Example 66, 2H-1,2,4-Benzothiadiazine-7-sulfonamide, 6-chloro-3,4-dihydro-2-(6-hydroxyhexyl)-, 1,1-dioxide] | 
160 °C | Cc1c(C2Nc3cc(C(F)(F)F)c(S(N)(=O)=O)cc3S(=O)(=O)N2)no[n+]1[O-] (centres unmarked) (as salt: HCl) [Example 10, 2H-1,2,4-Benzothiadiazine-7-sulfonamide, 3,4-dihydro-3-(4-methyl-5-oxido-1,2,5-oxadiazol-3-yl)-6-(trifluoromethyl)-, 1,1-dioxide] | 
192 to 197 °C | NS(=O)(=O)c1cc2c(cc1Cl)NCN(CC1CO1)S2(=O)=O (centres unmarked) [Example 81, 2H-1,2,4-benzothiadiazine-7-sulfonamide, 6-chloro-3,4-dihydro-2-(oxiranylmethyl)-, 1,1-dioxide] | 

The remaining lines, values behind:

Compound | melting point | other results
NS(=O)(=O)c1cc2c(cc1Cl)NC(CCc1cc(CO[N+](=O)[O-])cc(CO[N+](=O)[O-])c1)NS2(=O)=O (centres unmarked) [Example 80b, 2H-1,2,4-Benzothiadiazine-7-sulfonamide, 3-[2-[3,5-bis[(nitrooxy)methyl]phenyl]ethyl]-6-chloro-3,4-dihydro-, 1,1-dioxide] | 101 to 104 °C | Urine collected in 6 hours (mL) (3 mg/kg) (Male Wistar rats; rat, in vivo, po): 3.9 ± 0.5 mL
NS(=O)(=O)c1cc2c(cc1Cl)NCN(CCCC(CO[N+](=O)[O-])O[N+](=O)[O-])S2(=O)=O (centres unmarked) [Example 43b, 2H-1,2,4-Benzothiadiazine-7-sulfonamide, 2-[4,5-bis(nitrooxy)pentyl]-6-chloro-3,4-dihydro-, 1,1-dioxide] | 49 to 53 °C | Urine collected in 6 hours (mL) (3 mg/kg) (Male Wistar rats; rat, in vivo, po): 3.0 ± 0.6 mL
NS(=O)(=O)c1cc2c(cc1Cl)NC(c1cc(CO[N+](=O)[O-])cc(CO[N+](=O)[O-])c1)NS2(=O)=O (centres unmarked) [Example 50c, 2H-1,2,4-Benzothiadiazine-7-sulfonamide, 3-[3,5-bis[(nitrooxy)methyl]phenyl]-6-chloro-3,4-dihydro-, 1,1-dioxide] | 121 to 124 °C | Urine collected in 6 hours (mL) (3 mg/kg) (Male Wistar rats; rat, in vivo, po): 3.3 ± 0.6 mL
NS(=O)(=O)c1cc2c(cc1Cl)NCN(CCCC(=O)O)S2(=O)=O [Example 53c, 2H-1,2,4-Benzothiadiazine-2-butanoic acid, 7-(aminosulfonyl)-6-chloro-3,4-dihydro-, 1,1-dioxide] | 72 to 78 °C | Urine collected in 6 hours (mL) (3 mg/kg) (Male Wistar rats; [2]): 3.7 ± 0.4 mL
NS(=O)(=O)c1cc2c(cc1Cl)NC(CCC(CO[N+](=O)[O-])O[N+](=O)[O-])NS2(=O)=O (centres unmarked) [Example 6b, 2H-1,2,4-Benzothiadiazine-7-sulfonamide, 3-[3,4-bis(nitrooxy)butyl]-6-chloro-3,4-dihydro-, 1,1-dioxide] | 153 to 155 °C | Urine collected in 6 hours (mL) (30 mg/kg) (Male Wistar rats; rat, in vivo, po): 6.8 ± 0.5 mL
NS(=O)(=O)c1cc2c(cc1Cl)N([N+](=O)[O-])CN(CCO[N+](=O)[O-])S2(=O)=O [Example 52, 2H-1,2,4-Benzothiadiazine-7-sulfonamide, 6-chloro-3,4-dihydro-4-nitro-2-[2-(nitrooxy)ethyl]-, 1,1-dioxide] | 144 °C (dec.) | Urine collected in 6 hours (mL) (3 mg/kg) (Male Wistar rats; rat, in vivo, po): 5.7 ± 0.8 mL
CC(CO[N+](=O)[O-])(CO[N+](=O)[O-])C(=O)N1CCC2(CC1)Nc1cc(Cl)c(S(N)(=O)=O)cc1S(=O)(=O)N2 [Example 23, Spiro[2H-1,2,4-benzothiadiazine-3(4H), 4′-piperidine]-7-sulfonamide, 6-chloro-1′-[2-methyl-3-(nitrooxy)-2-[(nitrooxy)methyl]-1-oxopropyl]-, 1,1-dioxide] | 142 to 145 °C | Urine collected in 6 hours (mL) (30 mg/kg) (Male Wistar rats; rat, in vivo, po): 1.7 ± 0.6 mL
NS(=O)(=O)c1cc2c(cc1Cl)NCN(Cc1cc(CO[N+](=O)[O-])cc(OCCCCBr)c1)S2(=O)=O [Example 68d, 2H-1,2,4-Benzothiadiazine-7-sulfonamide, 2-[[3-(4-bromobutoxy)-5[(nitrooxy)methyl]phenyl]methyl]-6-chloro-3,4-dihydro-, 1,1-dioxide] | 80 °C | 
NS(=O)(=O)c1cc2c(cc1C(F)(F)F)NC(CCCCO[N+](=O)[O-])NS2(=O)=O (centres unmarked) [Example 61b, 2H-1,2,4-Benzothiadiazine-7-sulfonamide, 3,4-dihydro-3-[4-(nitrooxy)butyl]-6-(trifluoromethyl)-, 1,1-dioxide] | 171 to 177 °C | 
NS(=O)(=O)c1cc2c(cc1C(F)(F)F)NC1(CCN(C(=O)CCCCO[N+](=O)[O-])CC1)NS2(=O)=O [Example 12c, Spiro[2H-1,2,4-benzothiadiazine-3(4H), 4′-piperidine]-7-sulfonamide, 1′-[5-(nitrooxy)-1-oxopentyl]-6-(trifluoromethyl)-, 1,1-dioxide] | 178 °C (dec.) | 
